Test results reported in patent US20150005264A1, “PREDICTIVE BIOMARKER FOR HYPOXIA-ACTIVATED PRODRUG THERAPY” (THRESHOLD PHARMACEUTICALS, INC., priority 2012, published 2015).

System: melanoma
Assay: Clinical trial of TH-302 monotherapy in melanoma patients, response compared with serum CA-IX level
Type: in vivo, human
Details: thirty melanoma patients, pre-dose serum CA-IX (ELISA) cut-offs 28.8, 77.1, 178.3 pg/mL, FIG. 1
Experimental: In one important embodiment, the HAP is TH-302. In a clinical trial of TH-302 in melanoma patients, CA-IX levels were measured in serum samples taken from patients prior to TH-302 administration. Measured levels varied widely, with the first quartile having levels of 28.8 pg/mL CA-IX or less, the median being 77.1 pg/mL CA-IX, and the 3rd quartile having 178.3 pg/mL or less.
The data set used to generate the graphs in FIG. 1 was used to generate the graph in FIG. 2, which uses the 2×Median value of 154.2 pg/mL as the cut-off for dividing patients into high and low CA-IX level groups. Using this value as the cut-off, one sees an even more dramatic example of the predictive value of CA-IX levels in determining whether a patient will respond to TH-302 or other HAP therapy.

## Cn1c(COP(=O)(NCCBr)NCCBr)cnc1[N+](=O)[O-] [TH-302, (2-bromoethyl)({[(2-bromoethyl)amino][(2-nitro-3-methylimidazol-4-yl)methoxy]phosphoryl})amine]
  progression-free survival (response to TH-302) versus serum CA-IX level: higher CA-IX levels correlated to a better response to TH-302
